Key:
Assay in all cases: SILAC LC-MS ABPP
Format in all cases: cell-based
Details in all cases: 25 μM 2 h, live DM93 cells
[1] = molecular target: T1, P35269 (Homo sapiens, UniProt P35269)
T1 construct: Probe-modified proteins from the soluble fraction were conjugated to a desthiobiotin-azide tag; endogenous in cells; host or cells: DM93 (SILAC)
Procedure, shortened: (§1)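 Competitive activity-based profiling in isotopically labelled DM93 melanoma cells. Heavy cells received 25 μM sulfonyl-triazole ligand and light cells vehicle, each for 2 h at 37 °C, before 2 h with 100 μM HHS-475. Labelled soluble proteins were tagged via CuAAC, combined, digested and enriched before LC-MS/MS.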

[2] = molecular target: T2, Q13535 (Homo sapiens, UniProt Q13535)
T2 construct: performing SuTEx compound screening directly in cells; endogenous in cells; host or cells: DM93 cells (SILAC), soluble fraction
Procedure, shortened: as §1

[3] = molecular target: T3, Q09028 (Homo sapiens, UniProt Q09028)
T3 construct: performing SuTEx compound screening directly in cells; endogenous in cells; host or cells: DM93 cells (SILAC)
Procedure, shortened: as §1

[4] = molecular target: T4, Q13330 (Homo sapiens, UniProt Q13330)
T4 construct: performing SuTEx compound screening directly in cells; endogenous in cells; host or cells: DM93 cells (SILAC), soluble fraction
Procedure, shortened: as §1

[5] = molecular target: T5, Q7Z6E9 (Homo sapiens, UniProt Q7Z6E9)
T5 construct: endogenous in cells; host or cells: DM93 cells (SILAC), live-cell treatment
Procedure, shortened: as §1

[6] = molecular target: T6, Q9BTC8 (Homo sapiens, UniProt Q9BTC8)
T6 construct: endogenous in cells; host or cells: DM93 cells (SILAC), treated live; soluble proteome analysed
Procedure, shortened: as §1

[7] = molecular target: T7, Q9P2E9 (Homo sapiens, UniProt Q9P2E9)
T7 construct: endogenous in cells; host or cells: DM93 cells (SILAC)
Procedure, shortened: as §1

[8] = molecular target: T8, O43660 (Homo sapiens, UniProt O43660)
T8 construct: endogenous in cells; host or cells: DM93
Procedure, shortened: as §1

[9] = molecular target: T9, P19174 (Homo sapiens, UniProt P19174)
T9 construct: endogenous in cells; host or cells: DM93 (SILAC)
Procedure, shortened: as §1

[10] = molecular target: T10, P42704 (Homo sapiens, UniProt P42704)
T10 construct: endogenous in cells; host or cells: DM93 cells (SILAC)
Procedure, shortened: as §1

[11] = molecular target: T11, P48147 (Homo sapiens, UniProt P48147)
T11 construct: endogenous in cells; host or cells: DM93 cells (SILAC)
Procedure, shortened: as §1

[12] = molecular target: T12, P61326 (Homo sapiens, UniProt P61326)
T12 construct: performing SuTEx compound screening directly in cells; endogenous in cells; host or cells: DM93 cells (SILAC)
Procedure, shortened: as §1

[13] = molecular target: T13, Q9HCE5 (Homo sapiens, UniProt Q9HCE5)
T13 construct: endogenous in cells; host or cells: DM93 cells (SILAC), treated live; soluble proteome analysed
Procedure, shortened: as §1

[14] = molecular target: T14, Q9UI12 (Homo sapiens, UniProt Q9UI12)
T14 construct: endogenous in cells; host or cells: DM93 cells (SILAC)
Procedure, shortened: as §1

[15] = molecular target: T15, O75351 (Homo sapiens, UniProt O75351)
T15 construct: endogenous in cells; host or cells: DM93
Procedure, shortened: as §1

[16] = molecular target: T16, P62979 (Homo sapiens, UniProt P62979)
T16 construct: performing SuTEx compound screening directly in cells; endogenous in cells; host or cells: DM93 cells (SILAC)
Procedure, shortened: as §1

[17] = molecular target: T17, P08238 (Homo sapiens, UniProt P08238)
T17 construct: endogenous in cells; host or cells: DM93 cells (SILAC)
Procedure, shortened: as §1

[18] = molecular target: T18, P09874 (Homo sapiens, UniProt P09874)
T18 construct: endogenous in cells; host or cells: DM93 cells (SILAC)
Procedure, shortened: as §1

T14 sequence (Q9UI12 whole entry): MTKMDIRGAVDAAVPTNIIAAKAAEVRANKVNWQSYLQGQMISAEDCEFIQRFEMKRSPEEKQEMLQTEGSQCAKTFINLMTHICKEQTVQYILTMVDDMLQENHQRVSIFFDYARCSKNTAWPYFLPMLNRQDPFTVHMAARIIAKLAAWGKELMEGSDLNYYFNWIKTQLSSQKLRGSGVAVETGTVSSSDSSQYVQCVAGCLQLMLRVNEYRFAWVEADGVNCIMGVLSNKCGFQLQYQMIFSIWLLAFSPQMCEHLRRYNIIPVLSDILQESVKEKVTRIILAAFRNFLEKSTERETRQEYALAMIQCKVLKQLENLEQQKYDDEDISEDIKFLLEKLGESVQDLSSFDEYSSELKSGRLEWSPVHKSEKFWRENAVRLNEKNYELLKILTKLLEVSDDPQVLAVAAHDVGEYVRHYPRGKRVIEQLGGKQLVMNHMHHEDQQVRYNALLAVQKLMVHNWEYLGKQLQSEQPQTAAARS
T15 sequence (O75351 whole entry): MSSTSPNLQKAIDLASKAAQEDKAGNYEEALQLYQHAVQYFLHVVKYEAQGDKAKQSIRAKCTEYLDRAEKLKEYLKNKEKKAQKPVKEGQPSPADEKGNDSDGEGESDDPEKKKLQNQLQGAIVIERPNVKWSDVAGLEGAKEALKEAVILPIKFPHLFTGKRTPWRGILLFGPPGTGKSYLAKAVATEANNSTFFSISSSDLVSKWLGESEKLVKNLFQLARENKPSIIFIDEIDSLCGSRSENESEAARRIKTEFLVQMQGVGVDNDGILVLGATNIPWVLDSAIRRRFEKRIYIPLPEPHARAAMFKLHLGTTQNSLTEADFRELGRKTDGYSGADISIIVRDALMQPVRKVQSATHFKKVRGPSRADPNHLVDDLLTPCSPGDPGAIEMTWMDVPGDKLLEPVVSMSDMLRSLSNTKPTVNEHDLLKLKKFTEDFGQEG
T2 sequence (Q13535 whole entry): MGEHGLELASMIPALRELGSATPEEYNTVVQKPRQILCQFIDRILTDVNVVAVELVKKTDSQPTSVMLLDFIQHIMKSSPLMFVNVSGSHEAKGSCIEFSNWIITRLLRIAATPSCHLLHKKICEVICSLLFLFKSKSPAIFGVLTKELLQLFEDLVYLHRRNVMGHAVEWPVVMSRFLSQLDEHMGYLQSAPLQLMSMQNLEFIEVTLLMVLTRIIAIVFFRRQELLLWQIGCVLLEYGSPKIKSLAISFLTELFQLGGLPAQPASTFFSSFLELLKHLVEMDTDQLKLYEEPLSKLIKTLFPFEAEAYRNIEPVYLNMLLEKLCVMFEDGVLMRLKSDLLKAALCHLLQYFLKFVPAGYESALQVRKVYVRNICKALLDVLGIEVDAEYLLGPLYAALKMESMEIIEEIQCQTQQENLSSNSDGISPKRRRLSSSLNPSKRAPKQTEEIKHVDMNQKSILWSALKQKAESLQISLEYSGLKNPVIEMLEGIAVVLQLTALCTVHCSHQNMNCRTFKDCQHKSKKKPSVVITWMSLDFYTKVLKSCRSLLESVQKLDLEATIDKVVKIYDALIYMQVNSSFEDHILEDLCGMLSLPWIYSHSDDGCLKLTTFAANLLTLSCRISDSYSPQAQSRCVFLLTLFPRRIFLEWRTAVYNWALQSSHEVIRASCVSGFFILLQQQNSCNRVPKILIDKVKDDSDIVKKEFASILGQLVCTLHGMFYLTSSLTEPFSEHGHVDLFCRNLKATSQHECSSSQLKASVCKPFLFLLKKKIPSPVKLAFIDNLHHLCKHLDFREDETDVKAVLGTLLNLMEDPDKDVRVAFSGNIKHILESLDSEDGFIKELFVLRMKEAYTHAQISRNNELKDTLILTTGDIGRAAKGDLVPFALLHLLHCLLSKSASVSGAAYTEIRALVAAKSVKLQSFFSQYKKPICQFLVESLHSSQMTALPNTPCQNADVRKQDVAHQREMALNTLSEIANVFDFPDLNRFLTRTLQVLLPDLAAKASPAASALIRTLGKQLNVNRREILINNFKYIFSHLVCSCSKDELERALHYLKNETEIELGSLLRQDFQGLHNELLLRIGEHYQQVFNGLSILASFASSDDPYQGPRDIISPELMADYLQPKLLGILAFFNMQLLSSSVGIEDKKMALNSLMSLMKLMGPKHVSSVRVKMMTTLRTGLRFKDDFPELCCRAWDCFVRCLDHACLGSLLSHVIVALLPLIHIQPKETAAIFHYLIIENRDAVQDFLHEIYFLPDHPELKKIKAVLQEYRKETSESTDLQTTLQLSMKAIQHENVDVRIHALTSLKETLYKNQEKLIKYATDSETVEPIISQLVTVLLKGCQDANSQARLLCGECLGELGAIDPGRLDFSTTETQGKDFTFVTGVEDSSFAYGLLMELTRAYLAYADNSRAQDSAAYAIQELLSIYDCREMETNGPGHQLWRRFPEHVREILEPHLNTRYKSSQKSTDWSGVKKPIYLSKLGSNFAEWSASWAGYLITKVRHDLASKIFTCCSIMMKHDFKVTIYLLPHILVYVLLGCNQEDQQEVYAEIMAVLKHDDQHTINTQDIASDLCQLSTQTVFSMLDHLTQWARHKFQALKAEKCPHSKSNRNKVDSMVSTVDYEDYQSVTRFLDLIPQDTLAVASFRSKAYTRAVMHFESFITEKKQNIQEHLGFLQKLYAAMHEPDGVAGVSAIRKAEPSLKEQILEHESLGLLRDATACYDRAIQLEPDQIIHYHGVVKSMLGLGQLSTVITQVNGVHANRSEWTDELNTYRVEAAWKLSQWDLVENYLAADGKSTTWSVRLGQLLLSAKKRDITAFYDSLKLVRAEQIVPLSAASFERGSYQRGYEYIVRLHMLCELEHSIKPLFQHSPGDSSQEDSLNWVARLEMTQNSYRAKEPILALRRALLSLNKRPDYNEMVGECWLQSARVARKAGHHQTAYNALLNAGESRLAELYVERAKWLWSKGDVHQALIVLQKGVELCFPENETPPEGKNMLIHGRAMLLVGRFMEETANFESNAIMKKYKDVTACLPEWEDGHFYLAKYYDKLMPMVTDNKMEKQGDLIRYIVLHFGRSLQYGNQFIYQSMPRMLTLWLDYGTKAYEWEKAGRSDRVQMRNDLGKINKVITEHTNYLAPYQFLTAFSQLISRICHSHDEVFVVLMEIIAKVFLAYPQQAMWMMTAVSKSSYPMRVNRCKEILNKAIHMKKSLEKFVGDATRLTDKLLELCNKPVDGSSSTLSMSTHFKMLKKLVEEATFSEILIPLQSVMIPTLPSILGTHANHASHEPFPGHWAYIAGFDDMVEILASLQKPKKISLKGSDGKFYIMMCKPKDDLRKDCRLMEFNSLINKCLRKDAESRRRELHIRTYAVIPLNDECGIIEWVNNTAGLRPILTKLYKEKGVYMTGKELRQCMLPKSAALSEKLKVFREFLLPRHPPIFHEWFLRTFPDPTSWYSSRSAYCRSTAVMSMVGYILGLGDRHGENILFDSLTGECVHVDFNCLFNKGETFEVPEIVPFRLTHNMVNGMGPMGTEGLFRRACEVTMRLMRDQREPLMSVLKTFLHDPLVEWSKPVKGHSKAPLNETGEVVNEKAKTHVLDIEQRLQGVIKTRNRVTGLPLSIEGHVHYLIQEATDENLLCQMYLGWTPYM
T8 sequence (O43660 whole entry): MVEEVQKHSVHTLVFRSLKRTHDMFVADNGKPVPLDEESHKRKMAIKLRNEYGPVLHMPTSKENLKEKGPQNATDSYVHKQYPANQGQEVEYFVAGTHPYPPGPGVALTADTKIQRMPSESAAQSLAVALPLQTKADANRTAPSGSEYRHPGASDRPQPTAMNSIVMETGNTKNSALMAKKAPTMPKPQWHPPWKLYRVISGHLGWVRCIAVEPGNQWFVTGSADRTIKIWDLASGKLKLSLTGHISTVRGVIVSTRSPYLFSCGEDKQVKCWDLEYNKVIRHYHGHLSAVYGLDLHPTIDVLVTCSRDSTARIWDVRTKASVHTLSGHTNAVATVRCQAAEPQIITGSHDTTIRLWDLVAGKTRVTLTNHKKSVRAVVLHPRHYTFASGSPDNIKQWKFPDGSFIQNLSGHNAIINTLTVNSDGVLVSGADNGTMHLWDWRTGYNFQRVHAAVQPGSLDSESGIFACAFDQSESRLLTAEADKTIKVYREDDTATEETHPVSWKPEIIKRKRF
T11 sequence (P48147 whole entry): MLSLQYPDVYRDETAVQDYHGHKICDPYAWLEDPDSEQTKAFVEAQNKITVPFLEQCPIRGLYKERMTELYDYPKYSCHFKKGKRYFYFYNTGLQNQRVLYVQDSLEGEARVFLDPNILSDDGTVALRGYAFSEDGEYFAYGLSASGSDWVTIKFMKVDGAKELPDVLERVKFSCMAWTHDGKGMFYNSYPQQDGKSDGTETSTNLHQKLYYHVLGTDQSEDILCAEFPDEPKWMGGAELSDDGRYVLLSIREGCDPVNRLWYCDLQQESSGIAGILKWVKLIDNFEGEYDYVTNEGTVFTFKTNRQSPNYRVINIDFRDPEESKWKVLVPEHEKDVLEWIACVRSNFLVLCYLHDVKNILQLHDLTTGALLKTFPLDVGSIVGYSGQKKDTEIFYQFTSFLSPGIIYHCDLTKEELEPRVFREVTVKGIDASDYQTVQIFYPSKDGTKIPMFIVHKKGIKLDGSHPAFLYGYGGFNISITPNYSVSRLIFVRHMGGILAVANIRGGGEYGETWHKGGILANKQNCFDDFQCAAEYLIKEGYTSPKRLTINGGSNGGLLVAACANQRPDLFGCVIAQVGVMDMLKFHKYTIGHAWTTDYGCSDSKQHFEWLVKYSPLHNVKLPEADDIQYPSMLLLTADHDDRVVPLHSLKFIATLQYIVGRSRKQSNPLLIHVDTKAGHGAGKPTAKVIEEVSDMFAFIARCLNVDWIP
T12 sequence (P61326 whole entry): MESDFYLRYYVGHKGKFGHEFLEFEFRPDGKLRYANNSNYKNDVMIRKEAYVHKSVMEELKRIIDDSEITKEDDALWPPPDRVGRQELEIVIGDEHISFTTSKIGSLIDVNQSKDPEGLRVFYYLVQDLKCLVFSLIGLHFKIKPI

## O=C(c1ccc(S(=O)(=O)n2cncn2)cc1)N1CCC(c2ccccc2)CC1 [HHS-0701, (4-((1H-1,2,4-triazol-1-yl)sulfonyl)phenyl)(4-phenylpiperidin-1-yl)methanone]
[1]
  liganded tyrosine site 124: HHS0701.Y (tyrosine sites that showed >80% reductions (SR >5) in probe labeling in cells treated with compounds (liganded sites))
[2]
  liganded tyrosine site 2067: HHS0701.Y (tyrosine sites that showed >80% reductions (SR >5) in probe labeling in cells treated with compounds (liganded sites))

## O=C(NC1CCCCC1)c1ccc(S(=O)(=O)n2cncn2)cc1 [HHS-0301, 4-((1H-1,2,4-triazol-1-yl)sulfonyl)-N-cyclohexylbenzamide]
[3]
  liganded tyrosine site 154: HHS0301.Y|HHS0701.Y (tyrosine sites that showed >80% reductions (SR >5) in probe labeling in cells treated with compounds (liganded sites))
[4]
  liganded tyrosine site 22: HHS0301.Y (tyrosine sites that showed >80% reductions (SR >5) in probe labeling in cells treated with compounds (liganded sites))
[5]
  liganded tyrosine site 218: HHS0301.Y (tyrosine sites that showed >80% reductions (SR >5) in probe labeling in cells treated with compounds (liganded sites))
[6]
  liganded tyrosine site 22: HHS0301.Y (tyrosine sites that showed >80% reductions (SR >5) in probe labeling in cells treated with compounds (liganded sites))
[7]
  liganded tyrosine site 647: HHS0301.Y (tyrosine sites that showed >80% reductions (SR >5) in probe labeling in cells treated with compounds (liganded sites))

## O=C(NCC1CC1)c1ccc(S(=O)(=O)n2cncn2)cc1 [HHS-0201, 4-((1H-1,2,4-triazol-1-yl)sulfonyl)-N-(cyclopropylmethyl)benzamide]
[8]
  liganded tyrosine site 82: HHS0201.Y (tyrosine sites that showed >80% reductions (SR >5) in probe labeling in cells treated with compounds (liganded sites))
[9]
  liganded tyrosine site 472: HHS0201.Y (tyrosine sites that showed >80% reductions (SR >5) in probe labeling in cells treated with compounds (liganded sites))
[10]
  liganded tyrosine site 1365: HHS0201.Y (tyrosine sites that showed >80% reductions (SR >5) in probe labeling in cells treated with compounds (liganded sites))
[11]
  liganded tyrosine site 473: HHS0201.Y (tyrosine sites that showed >80% reductions (SR >5) in probe labeling in cells treated with compounds (liganded sites))
[12]
  liganded tyrosine site 34: HHS0201.Y (tyrosine sites that showed >80% reductions (SR >5) in probe labeling in cells treated with compounds (liganded sites))
[13]
  liganded tyrosine site 169: HHS0201.Y|HHS0301.Y (tyrosine sites that showed >80% reductions (SR >5) in probe labeling in cells treated with compounds (liganded sites))
[14]
  liganded tyrosine site 163: HHS0201.Y|HHS0301.Y (tyrosine sites that showed >80% reductions (SR >5) in probe labeling in cells treated with compounds (liganded sites))

## O=C(NCc1ccccc1)c1ccc(S(=O)(=O)n2cncn2)cc1 [HHS-0401, 4-((1H-1,2,4-triazol-1-yl)sulfonyl)-N-benzylbenzamide]
[15]
  liganded tyrosine site 47: HHS0401.Y (tyrosine sites that showed >80% reductions (SR >5) in probe labeling in cells treated with compounds (liganded sites))
[16]
  liganded tyrosine site 148: HHS0401.Y (tyrosine sites that showed >80% reductions (SR >5) in probe labeling in cells treated with compounds (liganded sites))

## O=C(NC1CC1)c1ccc(S(=O)(=O)n2cncn2)cc1 [HHS-0101, 4-((1H-1,2,4-triazol-1-yl)sulfonyl)-N-cyclopropylbenzamide]
[17]
  liganded tyrosine site 430: HHS0101.Y|HHS0201.Y|HHS0301.Y|HHS0401.Y (tyrosine sites that showed >80% reductions (SR >5) in probe labeling in cells treated with compounds (liganded sites))
[18]
  liganded tyrosine site 645: HHS0101.Y (tyrosine sites that showed >80% reductions (SR >5) in probe labeling in cells treated with compounds (liganded sites))
